The values that follow come from ChEMBL document CHEMBL4842316, “Structure-based bioisosterism design of thio-benzoxazepinones as novel necroptosis inhibitors” (Eur J Med Chem, 2021).

Calls of active or inactive are those of the source. The calls are words filed in the database; no cut-off is given here.

The subject of data set [1] is HT-29. As to the kind of experiment: Anti-necroptotic activity in human HT-29 cells assessed as inhibition of hTNFalpha/Z-VAD-fmk (TSZ)-induced necroptosis by measuring increase in cell viability measured after 8 to 10 hrs by celltiter-glo luminescent cell viability assay. Type of data set: functional, cell-based. For orientation: In ATP-based viability assays light output follows the ATP content of the culture.

Data set [2] in a line: Cytotoxicity against human HT-29 cells assessed as reduction in cell viability measured after 8 to 10 hrs by celltiter-glo luminescent cell viability assay. Type of data set: cell-based. The conditions noted are these: time 8-10 hrs.
For data set [3], the system named is HT-29. The data set can be described thus: Anti-necroptotic activity in human HT-29 cells assessed as inhibition of Z-VAD-fmk (TSZ)-induced necroptosis by measuring increase in cell viability measured after 8 to 10 hrs by celltiter-glo luminescent cell viability assay. Type of data set: functional, cell-based. The conditions noted are these: time 8-10 hrs.
The target in data set [4] is T1, Receptor-interacting serine/threonine-protein kinase 1 (Homo sapiens) (UniProt Q13546).
T1 sequence (whole entry): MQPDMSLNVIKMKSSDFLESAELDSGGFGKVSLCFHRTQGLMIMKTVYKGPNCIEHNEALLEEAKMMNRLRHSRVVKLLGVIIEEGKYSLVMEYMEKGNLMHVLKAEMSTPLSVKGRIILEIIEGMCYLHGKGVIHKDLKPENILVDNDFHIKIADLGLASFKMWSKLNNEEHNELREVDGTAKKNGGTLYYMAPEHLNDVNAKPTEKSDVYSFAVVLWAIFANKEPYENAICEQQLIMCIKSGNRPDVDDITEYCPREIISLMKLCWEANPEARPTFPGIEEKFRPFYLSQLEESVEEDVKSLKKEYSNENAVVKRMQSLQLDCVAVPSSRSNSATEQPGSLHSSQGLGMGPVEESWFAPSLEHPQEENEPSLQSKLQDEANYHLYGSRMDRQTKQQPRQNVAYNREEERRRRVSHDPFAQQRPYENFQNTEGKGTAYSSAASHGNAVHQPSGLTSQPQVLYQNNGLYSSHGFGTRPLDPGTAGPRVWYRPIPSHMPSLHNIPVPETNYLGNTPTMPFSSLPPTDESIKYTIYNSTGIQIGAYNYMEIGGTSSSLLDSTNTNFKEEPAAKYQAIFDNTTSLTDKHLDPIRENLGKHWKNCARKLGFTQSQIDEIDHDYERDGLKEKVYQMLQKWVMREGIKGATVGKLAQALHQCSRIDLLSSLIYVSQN
As to the kind of experiment: Inhibition of RIPK1 phosphorylation in Z-VAD-fmk (TSZ)-induced human HT-29 cells at 1 uM measured up to 4 hrs by immunoblotting analysis. Type of data set: cell-based. The conditions noted are these: time hrs <=4. On the technique in general: In western blotting, separated proteins are transferred to a membrane and probed.

Data set [5] has as its target Receptor-interacting serine/threonine-protein kinase 3 (Homo sapiens) (UniProt Q9Y572). As to the kind of experiment: Inhibition of RIPK3 phosphorylation in Z-VAD-fmk (TSZ)-induced human HT-29 cells at 1 uM measured up to 4 hrs by immunoblotting analysis. In kind it is cell-based. The conditions noted are these: time hrs <=4.
The target of data set [6] is T2, Mixed lineage kinase domain-like protein (Homo sapiens) (UniProt Q8NB16).
T2 sequence (whole entry): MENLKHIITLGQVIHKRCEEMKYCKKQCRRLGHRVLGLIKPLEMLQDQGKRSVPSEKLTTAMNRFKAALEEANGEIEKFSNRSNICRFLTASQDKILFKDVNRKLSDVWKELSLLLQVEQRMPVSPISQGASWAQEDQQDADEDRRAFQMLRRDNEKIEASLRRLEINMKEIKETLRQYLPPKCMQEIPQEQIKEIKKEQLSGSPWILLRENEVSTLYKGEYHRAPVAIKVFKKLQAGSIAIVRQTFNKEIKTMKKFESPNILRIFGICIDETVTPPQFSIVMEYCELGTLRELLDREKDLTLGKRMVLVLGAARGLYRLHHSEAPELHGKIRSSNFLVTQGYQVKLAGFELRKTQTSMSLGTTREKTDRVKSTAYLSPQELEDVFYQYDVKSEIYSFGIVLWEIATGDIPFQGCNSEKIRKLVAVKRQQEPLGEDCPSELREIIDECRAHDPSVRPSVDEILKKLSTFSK
As to the kind of experiment: Inhibition of MLKL phosphorylation in Z-VAD-fmk (TSZ)-induced human HT-29 cells at 1 uM measured up to 4 hrs by immunoblotting analysis. In kind it is cell-based. The conditions noted are these: time hrs <=4.

The target of data set [7] is T1, Receptor-interacting serine/threonine-protein kinase 1 (Homo sapiens). The data set can be described thus: Inhibition of RIPK1 phosphorylation in Z-VAD-fmk (TSZ)-induced human HT-29 cells measured at 4 hrs by immunoblotting analysis. In kind it is cell-based. The conditions noted are these: dose 0.001-1 µM.
For data set [8], the target named is Receptor-interacting serine/threonine-protein kinase 3 (Homo sapiens) (UniProt Q9Y572). The data set can be described thus: Inhibition of RIPK3 phosphorylation in Z-VAD-fmk (TSZ)-induced human HT-29 cells measured at 4 hrs by immunoblotting analysis. The conditions noted are these: dose 0.001-1 µM. Type of data set: cell-based.
Data set [9] addresses T2, Mixed lineage kinase domain-like protein (Homo sapiens). The data set can be described thus: Inhibition of MLKL phosphorylation in Z-VAD-fmk (TSZ)-induced human HT-29 cells measured at 4 hrs by immunoblotting analysis. In kind it is cell-based. The conditions noted are these: dose 0.001-1 µM.
Data set [10] addresses T1, Receptor-interacting serine/threonine-protein kinase 1 (Homo sapiens). The data set can be described thus: Inhibition of RIPK1 in Z-VAD-fmk (TSZ)-induced human HT-29 cells assessed as reduction in RIPK1-RIPK3 necrosome formation at 1 uM measured after 6 hrs by Western blot analysis. In kind it is cell-based.
For data set [11], the target named is Receptor-interacting serine/threonine-protein kinase 3 (Homo sapiens) (UniProt Q9Y572). As to the kind of experiment: Inhibition of RIPK3 in Z-VAD-fmk (TSZ)-induced human HT-29 cells assessed as reduction in RIPK1-RIPK3 necrosome formation at 1 uM measured after 6 hrs by Western blot analysis. In kind it is cell-based.

Chain of Receptor-interacting serine/threonine-protein kinase 3 (Homo sapiens) (Q9Y572 whole entry, looked up, the tested form may be a part): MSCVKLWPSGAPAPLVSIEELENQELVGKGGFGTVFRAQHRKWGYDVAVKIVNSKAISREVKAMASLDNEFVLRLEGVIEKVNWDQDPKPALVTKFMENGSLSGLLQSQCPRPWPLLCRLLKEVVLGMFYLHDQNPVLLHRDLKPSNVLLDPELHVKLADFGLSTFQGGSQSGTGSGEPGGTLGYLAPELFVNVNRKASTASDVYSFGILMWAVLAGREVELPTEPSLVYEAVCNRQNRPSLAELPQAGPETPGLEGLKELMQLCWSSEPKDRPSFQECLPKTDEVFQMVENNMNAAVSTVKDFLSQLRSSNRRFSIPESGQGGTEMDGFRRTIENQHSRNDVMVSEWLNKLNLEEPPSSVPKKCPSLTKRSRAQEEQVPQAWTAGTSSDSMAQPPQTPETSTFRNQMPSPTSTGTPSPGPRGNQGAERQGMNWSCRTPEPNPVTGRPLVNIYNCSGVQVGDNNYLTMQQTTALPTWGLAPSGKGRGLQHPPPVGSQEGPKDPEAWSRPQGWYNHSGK

The EC50 is the concentration giving half of the maximal effect. In general, CC50 refers to the concentration giving 50% cytotoxicity. Take `CCN1C(=S)[C@H](NC(=O)c2n[nH]c(Cc3ccccc3)n2)COc2ccccc21`: the EC50 with HT-29 [1] was found to be 6.68 µM. Further, the CC50 in [2] was over 50 µM.
As to `CN1C(=O)[C@@H](NC(=O)c2nnc(Cc3ccccc3)[nH]2)COc2ccccc21` [GSK2982772], in the data set on HT-29 [1], the concentration giving a half-maximal response (EC50) was determined as 0.0036 µM. Moreover, the CC50 in data set [2] was over 50 µM.
Consider `[2H]C([2H])([2H])N1C(=S)[C@@H](NC(=O)c2n[nH]c(Cc3ccccc3)n2)COc2ccccc21`, for which the EC50 in the data set on HT-29 [1] was 0.0074 µM. Besides, the CC50 in data set [2] is over 50 µM.
Take `Cc1ccc2c(n1)OC[C@H](NC(=O)c1n[nH]c(Cc3ccccc3)n1)C(=O)N2C`: in the data set on HT-29 [1], the EC50 worked out at 0.363 µM. For the same molecule, the CC50 in data set [2] was over 50 µM.
The like results for `CN1C(=S)[C@H](NC(=O)c2n[nH]c(Cc3ccccc3)n2)COc2cccnc21` were, in that order, 0.0186 µM and over 50 µM.
Take `CN1C(=S)[C@@H](NC(=O)c2n[nH]c(Cc3ccccc3)n2)COc2ccccc21`: the EC50 in the data set with HT-29 [1] came out at 0.0028 µM. Moreover, the CC50 in data set [2] was over 50 µM. The Activity entry with HT-29 [3] is “Dose-Dependent Effect”. Further, the inhibition entry in data set [4], in [5], in [6], in data set [10] and in [11] was “Active” throughout. Moreover, the inhibition result in [7], in [8] and in data set [9] was “Dose-Dependent Effect” each time.
As for `Cc1cnc2c(c1)N(C)C(=O)[C@@H](NC(=O)c1n[nH]c(Cc3ccccc3)n1)CO2`, in the data set on HT-29 [1], the concentration for a half-maximal effect (EC50) was found to be 0.243 µM. For the same molecule, the CC50 in [2] is over 50 µM.
In the case of `CN1C(=S)[C@@H](NC(=O)c2n[nH]c(Cc3ccccc3)n2)COc2cccnc21`, the half-maximal effective concentration (EC50) in the data set with HT-29 [1] came out at 0.0137 µM. Also, the CC50 in data set [2] is over 50 µM.
The like results for `Cc1cnc2c(c1)N(C)C(=S)[C@H](NC(=O)c1n[nH]c(Cc3ccccc3)n1)CO2` were, in that order, 3.4 µM and over 50 µM.
With `CN1C(=O)[C@@H](NC(=O)c2n[nH]c(Cc3ccccc3)n2)COc2ncccc21`, the EC50 in the data set with HT-29 [1] is over 10 µM. Besides, the cytotoxic concentration (CC50) in [2] is over 50 µM.
The matching figures for `CN1C(=O)[C@H](NC(=O)c2n[nH]c(Cc3ccccc3)n2)COc2ncccc21`: over 10 µM and over 50 µM.
Regarding `CN1C(=O)[C@H](NC(=O)c2n[nH]c(Cc3ccccc3)n2)COc2cccnc21`, the half-maximal effective concentration (EC50) in the data set with HT-29 [1] was found to be 0.81 µM. In addition, the CC50 in [2] is over 50 µM.
The like results for `CN1C(=O)[C@H](NC(=O)c2nnc(Cc3ccccc3)[nH]2)COc2ccccc21` were, in that order, 0.279 µM and over 50 µM.
Turning to `CN1C(=S)[C@H](NC(=O)c2n[nH]c(Cc3ccccc3)n2)COc2ccccc21`, the EC50 with HT-29 [1] is 0.0226 µM. Also, in data set [2], the CC50 is over 50 µM. The Activity entry in the data set with HT-29 [3] is “Dose-Dependent Effect”. In addition, the inhibition result in data set [4], in [5], in [6], in data set [10] and in data set [11] was “Active” throughout. Also, the inhibition entry in data set [7], in [8] and in data set [9] was “Dose-Dependent Effect” each time.
With `CN1C(=S)[C@H](NC(=O)c2n[nH]c(Cc3ccccc3)n2)COc2ncccc21`, the EC50 in the data set with HT-29 [1] is over 10 µM. The CC50 in data set [2] is over 50 µM.
The matching figures for `[2H]C([2H])([2H])N1C(=S)[C@H](NC(=O)c2n[nH]c(Cc3ccccc3)n2)COc2ccccc21`: 0.0763 µM and over 50 µM.
The matching figures for `Cc1cnc2c(c1)N(C)C(=O)[C@H](NC(=O)c1n[nH]c(Cc3ccccc3)n1)CO2`: over 10 µM and over 50 µM.
The matching figures for `O=C(N[C@@H]1COc2ccccc2NC1=S)c1n[nH]c(Cc2ccccc2)n1`: 8.84 µM and over 50 µM.
Take `CCN1C(=S)[C@@H](NC(=O)c2n[nH]c(Cc3ccccc3)n2)COc2ccccc21`: the EC50 in the data set with HT-29 [1] is 1.51 µM. Besides, the CC50 in data set [2] was over 50 µM.
The like results for `Cc1ccc2c(n1)OC[C@@H](NC(=O)c1n[nH]c(Cc3ccccc3)n1)C(=O)N2C` were, in that order, 6.5 µM and over 50 µM.
The like results for `O=C(N[C@H]1COc2ccccc2NC1=S)c1n[nH]c(Cc2ccccc2)n1` were, in that order, 0.736 µM and over 50 µM.
The like results for `Cc1ccc2c(n1)OC[C@@H](NC(=O)c1n[nH]c(Cc3ccccc3)n1)C(=S)N2C` were, in that order, 2.02 µM and over 50 µM.
On to `Cc1cnc2c(c1)N(C)C(=S)[C@@H](NC(=O)c1n[nH]c(Cc3ccccc3)n1)CO2`, for which the EC50 in the data set on HT-29 [1] worked out at 0.144 µM. The CC50 in data set [2] is over 50 µM.
The like results for `CN1C(=O)[C@@H](NC(=O)c2nnc(Cc3ccccc3)[nH]2)COc2cccnc21` [ECLITASERTIB] were, in that order, 0.0154 µM and over 50 µM.
The matching figures for `Cc1ccc2c(n1)OC[C@H](NC(=O)c1n[nH]c(Cc3ccccc3)n1)C(=S)N2C`: 0.122 µM and over 50 µM.
The matching figures for `CN1C(=S)[C@@H](NC(=O)c2n[nH]c(Cc3ccccc3)n2)COc2ncccc21`: over 10 µM and over 50 µM.
